Columns and labels:
[1] = biological target: nuclear BRD4-NUT foci in HCC2494 NUT midline carcinoma cells (Homo sapiens (Human), UniProt O60885+Q86Y26); assay: Nut-foci formation assay; assay type: cell-based; details: 24 hours, read-out: HCS Brd4-NUT IC50
Procedure: HCC2494 NUT midline carcinoma cells (expressing BRD4-NUT-fusion) were obtained from the University of Texas Southwestern and cultured in RPMI-1640 medium containing 10% Foetal Calf Serum at 37° C. in a humidified 5% CO2 incubator.
Compound-mediated inhibition of BRD4 activity was monitored by quantification of the number and intensity of nuclear BRD4-NUT foci using automated immunofluorescence microscopy. Briefly, 5000 cells in 20 μL fresh medium were seeded into Poly-D-Lysine-precoated 384-well plates and incubated overnight at 37° C. and 5% CO2, followed by addition of 5 μl medium containing compound dilutions at 5-fold their final intended concentration. Dose-response effects were assessed by 3-fold serial dilutions of the test compound, starting at 10 μM. Following incubation of the cells for 24 hours at 37° C. and 5% CO2, the cells were fixed by incubation with 3.7% formaldehyde for 10 min, followed by immunofluorescence staining using rabbit anti-NUT (Cell Signaling Technologies, Cat#3625) as primary, and AlexaFluor488-labeled goat anti-rabbit (Invitrogen, Cat#A11008) as secondary antibody (latter complemented with 1 μg/mL Hoechst33342 as DNA dye). Assay plates were imaged using the appropriate filter sets on the Cellomics VTi automated fluorescence microscopy platform (ThermoFisher Scientific) and the population average of the number of NUT-foci per nucleus is quantified using the Cellomics Spot Detection BioApplication image analysis algorithm (ThermoFisher Scientific). The effect of a particular test compound concentration on NUT-foci number and intensity is expressed as percentage of the value obtained for cells treated with vehicle only (DMSO, 0.1% final concentration), which was set as 100. Compound concentrations leading to half-maximal (IC50) inhibition of the aforementioned readout parameters were determined using standard four parameter curve fitting.

[2] = test system: THP-1 cells; assay: Cell growth inhibition assay (CellTiter-Glo), THP-1; assay type: cell-based; details: Homo sapiens, read-out: THP-1 TGI
Procedure, shortened: (§1)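 CTG luminescence (cellular ATP) after compound treatment; values background- and day 0-corrected, vehicle (0.1% DMSO) = 100%, medium only = −100%. Dose range: 3-fold dilutions from 10 μM. IC50/TGI by 4-parameter fit.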

[3] = test system: K-562 cells; assay: Cell growth inhibition assay (CellTiter-Glo), K-562; assay type: cell-based, human; details: Homo sapiens, K562, read-out: K-562 TGI
Procedure, shortened: as §1

[4] = test system: MV-4-11 cells; assay: Cell growth inhibition assay (CellTiter-Glo), MV-4-11; assay type: cell-based; details: Homo sapiens, MV4-11, read-out: MV-4-11 TGI
Procedure, shortened: as §1

[5] = biological target: His-Brd4(44-477) (Homo sapiens (Human), UniProt O60885); assay: TR-FRET in-vitro binding assay for BRD4; details: biochemical
Procedure, shortened: (§2)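 Eight-point dilution series tested against in-house His-BRD2(60-472), BRD3(20-477) or BRD4(44-477) (45 nM in dispensed solution) binding acetyl-histone H4 (AcK5,8,12,16; 60 nM in dispensed solution). Incubation 35 min at 30 °C, pH 7.5 HEPES buffer; detection by TR-FRET using Eu-anti-His6 and streptavidin-allophycocyanin.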

[6] = biological target: His-Brd3(20-477) (Homo sapiens (Human), UniProt Q15059); assay: TR-FRET in-vitro binding assay for BRD3; details: biochemical
Chain of His-Brd3(20-477) (Q15059 20-477): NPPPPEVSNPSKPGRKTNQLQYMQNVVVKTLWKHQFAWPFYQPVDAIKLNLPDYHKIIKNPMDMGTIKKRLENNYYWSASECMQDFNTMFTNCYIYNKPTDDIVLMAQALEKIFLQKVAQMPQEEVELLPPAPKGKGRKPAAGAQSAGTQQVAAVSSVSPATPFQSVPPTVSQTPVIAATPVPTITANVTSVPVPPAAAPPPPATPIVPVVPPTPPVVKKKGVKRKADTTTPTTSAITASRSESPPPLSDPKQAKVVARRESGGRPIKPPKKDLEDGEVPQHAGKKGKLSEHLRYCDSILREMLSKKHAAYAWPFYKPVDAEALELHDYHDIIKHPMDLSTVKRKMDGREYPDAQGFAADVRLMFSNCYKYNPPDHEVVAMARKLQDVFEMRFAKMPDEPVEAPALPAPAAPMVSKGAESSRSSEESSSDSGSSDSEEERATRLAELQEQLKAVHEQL
Procedure, shortened: as §2

[7] = biological target: His-Brd2(60-472) (Homo sapiens (Human), UniProt P25440); assay: TR-FRET in-vitro binding assay for BRD2; details: biochemical
Chain of His-Brd2(60-472) (P25440 60-472): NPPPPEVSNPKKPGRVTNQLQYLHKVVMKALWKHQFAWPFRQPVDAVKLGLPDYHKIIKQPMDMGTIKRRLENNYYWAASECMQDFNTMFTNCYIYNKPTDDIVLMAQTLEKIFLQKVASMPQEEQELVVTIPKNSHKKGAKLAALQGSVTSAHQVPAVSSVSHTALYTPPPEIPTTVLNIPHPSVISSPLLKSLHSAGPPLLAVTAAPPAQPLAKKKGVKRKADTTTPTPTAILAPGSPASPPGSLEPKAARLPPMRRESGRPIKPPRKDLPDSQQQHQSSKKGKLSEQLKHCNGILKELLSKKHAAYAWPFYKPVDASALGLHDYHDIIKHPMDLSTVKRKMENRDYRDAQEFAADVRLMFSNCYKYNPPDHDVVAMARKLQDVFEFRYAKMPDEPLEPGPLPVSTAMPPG
Procedure, shortened: as §2

[8] = biological target: His-CREBBP (1081-1197) bromodomain (Homo sapiens (Human), UniProt Q92793); assay: AlphaScreen in-vitro binding assay for CREBBP; details: biochemical
Chain of His-CREBBP (1081-1197) bromodomain (Q92793 1081-1197): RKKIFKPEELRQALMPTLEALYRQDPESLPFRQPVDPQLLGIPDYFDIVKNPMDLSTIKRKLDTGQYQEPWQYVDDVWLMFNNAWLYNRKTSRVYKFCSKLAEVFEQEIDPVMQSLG
Procedure, shortened: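 Ni-chelate acceptor and streptavidin donor beads (45 µg/mL each, in 50 mM HEPES pH 7.5, 150 mM NaCl, 0.02% BSA) were then added for 60 min at room temperature. IC50 came from 8-point non-linear regression.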

Row | Compound | IC50 [1] [nM] | IC50 [5] [nM] | IC50 [6] [nM] | IC50 [7] [nM] | IC50 [8] [nM] | IC (total growth inhibition) [2] [µM] | IC (total growth inhibition) [3] [µM] | IC (total growth inhibition) [4] [µM]
1 | CCc1nn(CCOC)c2c1C(c1ccc(Cl)cc1)N(c1cc(C)c(=O)n(C)c1)C2=O (stereo not shown) [Example 86, 4-(4-chlorophenyl)-5-(1,5-dimethyl-6-oxo-1,6-dihydropyridin-3-yl)-3-ethyl-1-(2-methoxyethyl)-4,5-dihydropyrrolo[3,4-c]pyrazol-6(1H)-one] | 38.4 | – | – | – | – | 0.123 | > 10 | 0.0548
2 | Cc1nn(C2CC2)c2c1C(c1cccc(OC(F)(F)F)c1)N(c1cc(C)c(=O)n(C)c1)C2=O (stereo not shown) [Example 91, 1-cyclopropyl-5-(1,5-dimethyl-6-oxo-1,6-dihydropyridin-3-yl)-3-methyl-4-(3-(trifluoromethoxy)phenyl)-4,5-dihydropyrrolo[3,4-c]pyrazol-6(1H)-one] | 736 | – | – | – | – | 1.44 | > 10 | 0.978
3 | Cc1nn(C2CC2)c2c1[C@H](c1ccc(Cl)cc1)N(c1cc(C)c3nnc(C)n3n1)C2=O [Example 123, (S)-4-(4-chlorophenyl)-1-cyclopropyl-5-(3,8-dimethyl-[1,2,4]triazolo[4,3-b]pyridazin-6-yl)-3-methyl-4,5-dihydropyrrolo[3,4-c]pyrazol-6(1H)-one] | 8910 | 14000 | – | – | – | > 10 | > 10 | 5.81
4 | Cc1cc(N2C(=O)c3c(c(CO)nn3C3CC3)C2c2ccc(Cl)cc2)cn(C)c1=O (stereo not shown) [Example 133, 4-(4-chlorophenyl)-1-cyclopropyl-5-(1,5-dimethyl-6-oxo-1,6-dihydropyridin-3-yl)-3-(hydroxymethyl)-4,5-dihydropyrrolo[3,4-c]pyrazol-6(1H)-one] | 64.7 | 79 | 80 | – | – | 0.327 | > 10 | 0.102
5 | Cc1nn(C2CNC2)c2c1C(c1ccc(Cl)cc1)N(c1cc(C)c(=O)n(C)c1)C2=O (stereo not shown) [Example 138, 1-(azetidin-3-yl)-4-(4-chlorophenyl)-5-(1,5-dimethyl-6-oxo-1,6-dihydropyridin-3-yl)-3-methyl-4,5-dihydropyrrolo[3,4-c]pyrazol-6(1H)-one] | 845 | 290 | 240 | – | – | 1.51 | > 10 | 0.353
6 | Cc1nn(C(C)C)c2c1C(c1ccc(Cl)cc1F)N(c1cc(C)c(=O)n(C)c1)C2=O (stereo not shown) [Example 180, 4-(4-chloro-2-fluorophenyl)-5-(1,5-dimethyl-6-oxo-1,6-dihydropyridin-3-yl)-1-isopropyl-3-methyl-4,5-dihydropyrrolo[3,4-c]pyrazol-6(1H)-one] | – | 83 | 71 | 89 | 2400 | 0.186 | > 10 | 0.108
7 | CCn1nc2c(c1C)C(c1ccc(Cl)cc1F)N(c1cc(C)c3nnc(C)n3c1)C2=O (stereo not shown) [Example 186, 4-(4-chloro-2-fluorophenyl)-5-(3,8-dimethyl-[1,2,4]triazolo[4,3-a]pyridin-6-yl)-2-ethyl-3-methyl-4,5-dihydropyrrolo[3,4-c]pyrazol-6(2H)-one] | – | 69 | 61 | 140 | 6100 | 0.145 | > 10 | 0.0882

The next lines start with results.

Row | IC50 [1] [nM] | IC50 [5] [nM] | IC50 [6] [nM] | IC50 [7] [nM] | IC50 [8] [nM] | Compound | IC (total growth inhibition) [2] [µM] | IC (total growth inhibition) [3] [µM] | IC (total growth inhibition) [4] [µM]
8 | – | 34 | 40 | 62 | > 37000 | CCn1nc(C)c2c1C(=O)N(c1cc(C)c3nnc(C)n3c1)C2c1ccc(F)cc1F (stereo not shown) [Example 181, 4-(2,4-difluorophenyl)-5-(3,8-dimethyl-[1,2,4]triazolo[4,3-a]pyridin-6-yl)-1-ethyl-3-methyl-4,5-dihydropyrrolo[3,4-c]pyrazol-6(1H)-one] | 0.117 | > 10 | 0.0886
9 | – | 46 | 51 | 120 | 27000 | CCn1nc2c(c1C)C(c1ccc(F)cc1F)N(c1cc(C)c3nnc(C)n3c1)C2=O (stereo not shown) [Example 182, 4-(2,4-difluorophenyl)-5-(3,8-dimethyl-[1,2,4]triazolo[4,3-a]pyridin-6-yl)-2-ethyl-3-methyl-4,5-dihydropyrrolo[3,4-c]pyrazol-6(2H)-one] | 0.217 | > 10 | 0.12
10 | – | 29 | 36 | 47 | 24000 | COc1ncccc1-n1nc(C)c2c1C(=O)N(c1cc(C)c3nnc(C)n3c1)C2c1ccc(Cl)cc1F (stereo not shown) [Example 184, 4-(4-chloro-2-fluorophenyl)-5-(3,8-dimethyl-[1,2,4]triazolo[4,3-a]pyridin-6-yl)-1-(2-methoxypyridin-3-yl)-3-methyl-4,5-dihydropyrrolo[3,4-c]pyrazol-6(1H)-one] | 0.337 | > 10 | 0.136
11 | – | < 37 | 36 | 71 | 14200 | CCn1nc(C)c2c1C(=O)N(c1cc(C)c3nnc(C)n3c1)C2c1ccc(Cl)cc1F (stereo not shown) [Example 185, 4-(4-chloro-2-fluorophenyl)-5-(3,8-dimethyl-[1,2,4]triazolo[4,3-a]pyridin-6-yl)-1-ethyl-3-methyl-4,5-dihydropyrrolo[3,4-c]pyrazol-6(1H)-one] | 0.0877 | > 10 | 0.0427
12 | – | 29 | 33 | 40 | 3800 | Cc1nn(C(C)C)c2c1[C@@H](c1ccc(Cl)cc1F)N(c1cc(C)c3nnc(C)n3c1)C2=O [Example 189, (S)-4-(4-chloro-2-fluorophenyl)-5-(3,8-dimethyl-[1,2,4]triazolo[4,3-a]pyridin-6-yl)-1-isopropyl-3-methyl-4,5-dihydropyrrolo[3,4-c]pyrazol-6(1H)-one] | 0.0261 | > 10 | 0.0269
13 | – | 45 | 65 | 90 | 5200 | COc1ncccc1-n1nc2c(c1C)C(c1ccc(Cl)cc1F)N(c1cc(C)c3nnc(C)n3c1)C2=O (stereo not shown) [Example 194, 4-(4-chloro-2-fluorophenyl)-5-(3,8-dimethyl-[1,2,4]triazolo[4,3-a]pyridin-6-yl)-2-(2-methoxypyridin-3-yl)-3-methyl-4,5-dihydropyrrolo[3,4-c]pyrazol-6(2H)-one] | 0.174 | > 10 | 0.0936
14 | – | < 11 | 16 | 20 | > 37000 | Cc1nn(C2CC2)c2c1C(c1ccc(Cl)cc1)N(c1cc(C)c3nnc(C(F)F)n3n1)C2=O (stereo not shown) [Example 195, 4-(4-chlorophenyl)-1-cyclopropyl-5-(3-(difluoromethyl)-8-methyl-[1,2,4]triazolo[4,3-b]pyridazin-6-yl)-3-methyl-4,5-dihydropyrrolo[3,4-c]pyrazol-6(1H)-one] | 0.0804 | > 10 | 0.0452

From patent publication US8975417B2, “Pyrazolopyrrolidine derivatives and their use in the treatment of disease” (Novartis AG, priority 2013, dated 2015)
